Results published in PubChem BioAssay (NCI).
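Test compounds were applied to cells in 96-well plates for 48 hours at 5 doses. GI50 is the concentration that inhibits growth by half. The concentration for full growth arrest is given as TGI.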

These compounds were tested on CAKI-1 renal (assay: DTP human tumour cell line panel, 48 h).
For `CCCCCCCCCCCCCCCCOP(=O)(O)Oc1ccc(/C=C\c2ccc(OP(=O)(O)OCCCCCCCCCCCCCCCC)cc2)cc1`, the TGI was greater than 100 µM.
For `CN(C)C(=S)/N=c1\ss/c(=N\C(=S)N(C)C)n1-c1ccc2c(c1)OCO2`, the TGI was greater than 100 µM.
`COC(=O)C(=O)C(C(=O)C(=O)Nc1ccc(C)cc1C)c1nc2ccccc2[nH]c1=O` (configuration not stated) gave a TGI of 68.9 µM.
`Cc1ccc(N=NC(C(=O)c2ccccc2)C(=O)c2ccccc2)cc1` was tested, and the TGI was 85 µM.
`Cc1ccc(NC(=O)C2C(=O)N(c3ccc(C)c(C)c3)C(=O)/C2=N/O)cc1C` (configuration not stated) gave a TGI greater than 100 µM.
For `Nc1c(-c2ccc(Br)cc2)[n+]([O-])c2ccccc2[n+]1[O-]`, the TGI was greater than 100 µM.
Work on `C#CC[C@]12CC(=O)CC[C@H]1CC(=O)C2` yielded a TGI greater than 100 µM.
`CNC=O.[O]=[Ge].[O]=[Ge].[O]=[Ge].[O]=[Ge][OH].[O]=[Ge][OH]` showed a TGI greater than 100 µM.
With `N#CCCN(c1ccc(/C=C2\N=C(c3ccc(Cl)cc3)OC2=O)cc1)S(=O)(=O)c1ccccc1` the TGI was greater than 100 µM.
`Cc1cc(NS(=O)(=O)c2ccc(NC(=O)c3cccc4c(=O)c5ccccc5[nH]c34)cc2)no1` was tested, and the TGI was greater than 100 µM.
With `O=C(/C=C/c1ccccc1Cl)c1ccccc1Cl` the TGI was 38.1 µM.
`COC(=O)C1=C(c2ccc3c(c2)OCO3)O[C@H](c2ccc3c(c2)OCO3)[C@H]1COC(C)=O` showed a TGI greater than 100 µM.
Work on `CC(C)=[CH][Sb]([Br])([CH]=C(C)C)([CH]=C(C)C)[CH]=C(C)C` yielded a GI50 of 46.1 µM and a TGI greater than 100 µM.
For `CCOC(=O)[C@H]1Nc2ccc(C)cc2C2c3ccccc3CC21` (some centres not stated), the TGI was greater than 100 µM.
With `N#CCCN(CCC#N)c1ccc(/C=C2\N=C(CN3C(=O)c4ccccc4C3=O)OC2=O)cc1` the TGI was greater than 100 µM.
`CSc1nc(NC2OC(COC(C)=O)C(OC(C)=O)C(OC(C)=O)C2OC(C)=O)c2c(OC(C)=O)c(C)c(=O)oc2n1` (configuration not stated) showed a TGI greater than 100 µM.
Compound `O=C(NC1CCCCCC1)C1C(=O)N(C2CCCCCC2)C(=O)/C1=N\O` (configuration not stated) has a TGI greater than 100 µM.
In the case of `COc1ccc(C(=O)O)c(Cc2cccc3ccccc23)c1`, the TGI is reported as greater than 100 µM.
`CC#CC(=O)Nc1ccccc1CC(c1c[nH]c2ccccc12)c1c[nH]c2ccccc12` was tested, and the TGI was 58.9 µM.
For `NCCCNCCSSCCCCS(=O)O`, the TGI was greater than 100 µM.
In the case of `COC(=O)C(=O)C(C(=O)C=C(C)C)C(=O)C(=O)Nc1ccc(Cl)cc1C` (configuration not stated), the TGI is reported as greater than 100 µM.
For `Cc1cccc(C(C)(C)C)c1NC(=O)CCc1n[nH]c(=S)o1`, the TGI was greater than 100 µM.
`Cc1ccc(C(=O)/C=C/c2ccccc2O)c(C)c1` showed a TGI greater than 100 µM.
`O=S(O)CCCCSSCCCCSSCCCCS(=O)O` gave a TGI greater than 100 µM.
`N#Cc1cnsc1` was tested, and the TGI was greater than 100 µM.
In the case of `CC(=O)SCCC1c2[nH]c3ccccc3c2CCN1O` (configuration not stated), the TGI is reported as greater than 100 µM.
Compound `CCOC(=O)NC(=O)c1cn(CCCOC(=O)NCCCCCCNC(=O)OCCCn2c(=O)c(C(=O)NC(=O)OCC)cn(C)c2=O)c(=O)n(C)c1=O` has a TGI greater than 100 µM.
`O=C1C2=C(CC3C(C2)C3(Br)Br)C(=O)C2=C1CC1C(C2)C1(Br)Br` (configuration not stated) was tested, and the TGI was greater than 100 µM.
In the case of `CC(C)=CC(=O)N1CCN(C(=O)C=C(C)C)CC1`, the TGI is reported as greater than 100 µM.
For `COc1ccc(C2CC(=O)c3c(O)c(OC)c(OC)c(OC)c3O2)c(O)c1` (configuration not stated), the GI50 was 0.781 µM and the TGI was 60.4 µM.
`CC(=O)c1ccc(NC(=O)/C(Cc2ccccn2)=N/NC(=O)C[N+](C)(C)C)cc1` showed a TGI greater than 100 µM.
`CCc1cccc(C)c1NC(C)=O` was tested, and the TGI was greater than 100 µM.
`O=C(CC(=O)N1N=C(c2ccccc2)C(N=Nc2ccc(Cl)cc2)C1=O)Nc1ccccc1Cl` (configuration not stated) gave a TGI of 85.1 µM.

These compounds were tested on UACC-62 melanoma (assay: DTP human tumour cell line panel, 48 h).
With `CCCCCCCCCCCCCCCCOP(=O)(O)Oc1ccc(/C=C\c2ccc(OP(=O)(O)OCCCCCCCCCCCCCCCC)cc2)cc1` the TGI was greater than 100 µM.
`CCN(CC)C(=O)C/C(C)=N/NC(=O)c1ccncc1` showed a TGI greater than 100 µM.
`CN(C)C(=S)/N=c1\ss/c(=N\C(=S)N(C)C)n1-c1ccc2c(c1)OCO2` was tested, and the TGI was greater than 100 µM.
For `COC(=O)C(=O)C(C(=O)C(=O)Nc1ccc(C)cc1C)c1nc2ccccc2[nH]c1=O` (configuration not stated), the TGI was greater than 100 µM.
In the case of `Cc1ccc(N=NC(C(=O)c2ccccc2)C(=O)c2ccccc2)cc1`, the TGI is reported as 60.8 µM.
With `Cc1ccc(NC(=O)C2C(=O)N(c3ccc(C)c(C)c3)C(=O)/C2=N/O)cc1C` (configuration not stated) the TGI was greater than 100 µM.
Compound `C#CC[C@]12CC(=O)CC[C@H]1CC(=O)C2` has a TGI greater than 100 µM.
For `CNC=O.[O]=[Ge].[O]=[Ge].[O]=[Ge].[O]=[Ge][OH].[O]=[Ge][OH]`, the TGI was greater than 100 µM.
Work on `N#CCCN(c1ccc(/C=C2\N=C(c3ccc(Cl)cc3)OC2=O)cc1)S(=O)(=O)c1ccccc1` yielded a TGI greater than 100 µM.
Compound `Cc1cc(NS(=O)(=O)c2ccc(NC(=O)c3cccc4c(=O)c5ccccc5[nH]c34)cc2)no1` has a TGI of 66.8 µM.
Work on `O=C(/C=C/c1ccccc1Cl)c1ccccc1Cl` yielded a TGI of 36.7 µM.
For `COC(=O)C1=C(c2ccc3c(c2)OCO3)O[C@H](c2ccc3c(c2)OCO3)[C@H]1COC(C)=O`, the TGI was greater than 100 µM.
With `CC(C)=[CH][Sb]([Br])([CH]=C(C)C)([CH]=C(C)C)[CH]=C(C)C` the GI50 was 11.1 µM and the TGI was greater than 100 µM.
Compound `CCOC(=O)[C@H]1Nc2ccc(C)cc2C2c3ccccc3CC21` (some centres not stated) has a TGI greater than 100 µM.
`N#CCCN(CCC#N)c1ccc(/C=C2\N=C(CN3C(=O)c4ccccc4C3=O)OC2=O)cc1` showed a TGI greater than 100 µM.
`CSc1nc(NC2OC(COC(C)=O)C(OC(C)=O)C(OC(C)=O)C2OC(C)=O)c2c(OC(C)=O)c(C)c(=O)oc2n1` (configuration not stated) showed a TGI greater than 100 µM.
`O=C(NC1CCCCCC1)C1C(=O)N(C2CCCCCC2)C(=O)/C1=N\O` (configuration not stated) showed a TGI of 48.6 µM.
For `COc1ccc(C(=O)O)c(Cc2cccc3ccccc23)c1`, the TGI was greater than 100 µM.
`CC#CC(=O)Nc1ccccc1CC(c1c[nH]c2ccccc12)c1c[nH]c2ccccc12` was tested, and the TGI was 28.3 µM.
For `NCCCNCCSSCCCCS(=O)O`, the TGI was 34.8 µM.
Compound `COC(=O)C(=O)C(C(=O)C=C(C)C)C(=O)C(=O)Nc1ccc(Cl)cc1C` (configuration not stated) has a TGI greater than 100 µM.
Work on `Cc1cccc(C(C)(C)C)c1NC(=O)CCc1n[nH]c(=S)o1` yielded a TGI greater than 100 µM.
Work on `Cc1ccc(C(=O)/C=C/c2ccccc2O)c(C)c1` yielded a TGI greater than 100 µM.
`O=S(O)CCCCSSCCCCSSCCCCS(=O)O` was tested, and the TGI was 55.3 µM.
Work on `N#Cc1cnsc1` yielded a TGI greater than 100 µM.
Work on `CC(=O)SCCC1c2[nH]c3ccccc3c2CCN1O` (configuration not stated) yielded a TGI greater than 100 µM.
With `CCOC(=O)NC(=O)c1cn(CCCOC(=O)NCCCCCCNC(=O)OCCCn2c(=O)c(C(=O)NC(=O)OCC)cn(C)c2=O)c(=O)n(C)c1=O` the TGI was greater than 100 µM.
In the case of `O=C1C2=C(CC3C(C2)C3(Br)Br)C(=O)C2=C1CC1C(C2)C1(Br)Br` (configuration not stated), the TGI is reported as greater than 100 µM.
Work on `CC(C)=CC(=O)N1CCN(C(=O)C=C(C)C)CC1` yielded a TGI greater than 100 µM.
With `COc1ccc(C2CC(=O)c3c(O)c(OC)c(OC)c(OC)c3O2)c(O)c1` (configuration not stated) the GI50 was 0.0566 µM and the TGI was 20.2 µM.
`CC(=O)c1ccc(NC(=O)/C(Cc2ccccn2)=N/NC(=O)C[N+](C)(C)C)cc1` was tested, and the TGI was greater than 100 µM.
`CCc1cccc(C)c1NC(C)=O` gave a TGI greater than 100 µM.
`O=C(CC(=O)N1N=C(c2ccccc2)C(N=Nc2ccc(Cl)cc2)C1=O)Nc1ccccc1Cl` (configuration not stated) gave a TGI of 53.3 µM.

These compounds were tested on SK-MEL-5 melanoma (assay: DTP human tumour cell line panel, 48 h).
`CCCCCCCCCCCCCCCCOP(=O)(O)Oc1ccc(/C=C\c2ccc(OP(=O)(O)OCCCCCCCCCCCCCCCC)cc2)cc1` was tested, and the TGI was greater than 100 µM.
With `CCN(CC)C(=O)C/C(C)=N/NC(=O)c1ccncc1` the TGI was greater than 100 µM.
